Measurements taken from PMC5225183, “Fingerprinting of neurotoxic compounds using a mouse embryonic stem cell dual luminescence reporter assay” (Archives of Toxicology, 2016).
“Also recorded” adds a separate entry of the source. Read-outs that look alike come from different tables or passages of the source.

How the values were obtained:
EF1α promoter = test system: EF1α promoter
Outline: (§1)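 Mouse CGR8 ESCs carrying Tα1-firefly and EF1α-Renilla luciferase reporters, treated either undifferentiated (48 h exposure after 24 h plating) or as MS5-induced neurons (exposure day 6 to day 8). Dual-luciferase luminescence expressed as % promoter activity versus DMSO control wells; 5 µM methylmercury as positive control.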

[1] = test system: Tubulin α1 (Tα1) promoter
Outline: as §1

[2] = test system: ESCs and ESC-derived neurons; test: Dual luminescence reporter test system, all readouts in ESCs and ESC-derived neurons
Outline: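 CGR8-2Luc mouse ESCs (dual reporter: Tα1-FLuc neural, EF1α-RLuc general) exposed 48 h after 24 h plating; ESC-derived neurons re-plated day 5 in N2/bFGF medium. Luciferase normalized to DMSO controls; PI (50 µg/ml, 2 h) measured DNA content as cytotoxicity. Curves scored by ≥30% significant change (ANOVA/Dunnett).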

[3] = ESC-derived neurons, 48 h exposure
[4] = undifferentiated ESCs, 48 h exposure
[5] = undifferentiated ESCs, 48 h exposure, lowest tested concentration with statistically significant decrease
[6] = ESCs and neurons, FLuc, RLuc, PI
[7] = reporter activity changes in the non-cytotoxic concentration range, highest possible number 4

In the case of `C[C@]12CC[C@H](O)CC1=CC[C@@H]1[C@@H]2CC[C@]2(C)C(c3cccnc3)=CC[C@@H]12` [Abiraterone], the “LOAEL Neurons EF1α” value (EF1α promoter; [3]) is reported as 2 µM, the “LOAEL ESC EF1α” value (EF1α promoter; [4]) is reported as over 2 µM and the “LOAEL ESC Tα1” value [1, 5] is reported as over 2 µM. For the same molecule, the “Number of non-cytotoxic changes” value ([2]; mouse, 48 h) was 1 and the “concentration up to which no cytotoxicity in the PI assay” value ([2]; mouse, 48 h) was over 100 µM.

In the case of `O=C(/C=C/c1cccc(S(=O)(=O)Nc2ccccc2)c1)NO` [Belinostat], the “LOAEL Neurons EF1α” value (EF1α promoter; [3]) is reported as 50 µM, the “LOAEL ESC EF1α” value (EF1α promoter; [4]) is reported as 5 µM and the “LOAEL ESC Tα1” value [1, 5] is reported as 5 µM. For the same molecule, the “Number of non-cytotoxic changes” value ([2]; mouse, 48 h) was 1.

For `Nc1ccccc1NC(=O)c1ccc(CNC(=O)OCc2cccnc2)cc1` [Entinostat], the “effect on general promoter activity in neurons” value (“effect … in neurons” for short) (EF1α promoter) was “enhanced”, the “LOAEL Neurons EF1α” value (EF1α promoter; [3]) was over 50 µM and the “LOAEL ESC EF1α” value (EF1α promoter; [4]) was 5 µM. For the same molecule, the “LOAEL ESC Tα1” value [1, 5] was 50 µM and the “Number of non-cytotoxic changes” value ([2]; mouse, 48 h) was 1.

`COc1cc2ncnc(Nc3ccc(F)c(Cl)c3)c2cc1OCCCN1CCOCC1` [Gefitinib] was tested, and the “LOAEL Neurons EF1α” value (EF1α promoter; [3]) was 50 µM, the “LOAEL ESC EF1α” value (EF1α promoter; [4]) was 50 µM and the “LOAEL ESC Tα1” value [1, 5] was 50 µM. For the same molecule, the “Number of non-cytotoxic changes” value ([2]; mouse, 48 h) was 0.

With `COC1=C2C[C@@H](C)C[C@H](OC)[C@H](O)[C@@H](C)/C=C(\C)[C@H](OC(N)=O)[C@@H](OC)/C=C\C=C(/C)C(=O)NC(=CC1=O)C2=O` [Geldanamycin] the “LOAEL Neurons EF1α” value (EF1α promoter; [3]) was 0.05 µM, the “LOAEL ESC EF1α” value (EF1α promoter; [4]) was 0.5 µM and the “LOAEL ESC Tα1” value [1, 5] was 0.005 µM. The “result in the dual luminescence reporter test system” value (from here on “result”) [2] was “considerable cytotoxicity”, the EC20 ([2]; in vitro system (neurons and ESCs)) was 1 to 10 nM and the “Number of non-cytotoxic changes” value ([2]; mouse, 48 h) was 1.

For `[Br][Hg][Br]` [Mercury bromide], the “LOAEL Neurons EF1α” value (EF1α promoter; [3]) was over 10 µM, the “LOAEL ESC EF1α” value (EF1α promoter; [4]) was 5 µM and the “LOAEL ESC Tα1” value [1, 5] was 5 µM. The “Number of non-cytotoxic changes” value [2] was 1.

In the case of `COCC(=O)O` [Methoxyacetic acid], the “LOAEL Neurons EF1α” value (EF1α promoter; [3]) is reported as over 50 µM, the “LOAEL ESC EF1α” value (EF1α promoter; [4]) is reported as over 50 µM and the “effect on neural promoter activity in ESCs” value [1] is reported as “increase”. The “LOAEL ESC Tα1” value [1, 5] was over 50 µM, the “result” value [2, 6] was “very weak signal; also recorded: relatively weak signal” and the “Number of non-cytotoxic changes” value [2, 7] was 1.

`[CH3][Hg][Cl]` [Methylmercury] was tested, and the “LOAEL Neurons EF1α” value (EF1α promoter; [3]) was 5 µM, the “LOAEL ESC EF1α” value (EF1α promoter; [4]) was 0.5 µM and the “LOAEL ESC Tα1” value [1, 5] was 0.5 µM. For the same molecule, the “Number of non-cytotoxic changes” value [2, 7] was 1.

In the case of `COC(=O)c1ccc2c(c1)NC(=O)/C2=C(\Nc1ccc(N(C)C(=O)CN2CCN(C)CC2)cc1)c1ccccc1` [Nintedanib], the “LOAEL Neurons EF1α” value (EF1α promoter; [3]) is reported as 5 µM, the “LOAEL ESC EF1α” value (EF1α promoter; [4]) is reported as 5 µM and the “LOAEL ESC Tα1” value [1, 5] is reported as 0.5 µM. For the same molecule, the “Number of non-cytotoxic changes” value ([2]; mouse, 48 h) was 2.

With `COc1ccc2[nH]c([S+]([O-])Cc3ncc(C)c(OC)c3C)nc2c1` (stereo not shown) [Omeprazole] the “LOAEL Neurons EF1α” value (EF1α promoter; [3]) was over 50 µM, the “LOAEL ESC EF1α” value (EF1α promoter; [4]) was over 50 µM and the “LOAEL ESC Tα1” value [1, 5] was over 50 µM. The “result” value [2] was “negative” and the “Number of non-cytotoxic changes” value ([2]; mouse, 48 h) was 0.

`Brc1ccc(Oc2cc(Br)c(Br)cc2Br)c(Br)c1` [PBDE-99] was tested, and the “LOAEL Neurons EF1α” value (EF1α promoter; [3]) was 5 µM, the “LOAEL ESC EF1α” value (EF1α promoter; [4]) was over 50 µM and the “LOAEL ESC Tα1” value [1, 5] was 50 µM. For the same molecule, the “result” value [2, 6] was “potentially neurotoxic” and the “Number of non-cytotoxic changes” value [2, 7] was 1.

For `Cc1[nH]c2ccccc2c1CCNCc1ccc(/C=C/C(=O)NO)cc1` [Panobinostat], the “LOAEL Neurons EF1α” value (EF1α promoter; [3]) was 50 µM, the “LOAEL ESC EF1α” value (EF1α promoter; [4]) was 0.05 µM and the “LOAEL ESC Tα1” value [1, 5] was 0.05 µM. The “result” value [2] was “no enhancement of promoter activities under any condition” and the “Number of non-cytotoxic changes” value ([2]; mouse, 48 h) was 1.

With `CC(C)NCC(O)COc1cccc2ccccc12` (stereo not shown) [Propranolol] the “LOAEL Neurons EF1α” value (EF1α promoter; [3]) was over 50 µM, the “LOAEL ESC EF1α” value (EF1α promoter; [4]) was 50 µM and the “LOAEL ESC Tα1” value [1, 5] was 50 µM. For the same molecule, the “Number of non-cytotoxic changes” value ([2]; mouse, 48 h) was 2.

In the case of `O=C(NC[C@H]1CN(c2ccc(N3CCOCC3=O)cc2)C(=O)O1)c1ccc(Cl)s1` [Rivaroxaban], the “LOAEL Neurons EF1α” value (EF1α promoter; [3]) is reported as over 10 µM, the “LOAEL ESC EF1α” value (EF1α promoter; [4]) is reported as over 10 µM and the “LOAEL ESC Tα1” value [1, 5] is reported as over 10 µM. The “Number of non-cytotoxic changes” value ([2]; mouse, 48 h) was 0.

For `C/C(O)=C(\C#N)C(=O)Nc1ccc(C(F)(F)F)cc1` [Teriflunomide], the “LOAEL Neurons EF1α” value (EF1α promoter; mouse, 48 h) was over 50 µM, the “LOAEL ESC EF1α” value (EF1α promoter; [4]) was over 50 µM and the “effect on neural promoter activity in ESCs” value [1] was “increase”. For the same molecule, the “LOAEL ESC Tα1” value [1, 5] was over 50 µM, the “concentration range of various effects” value [2] was 4 to 40 µM and the “result” value [2, 6] was “no effects on general promoter activity and/or on PI fluorescence”. For the same molecule, the “Number of non-cytotoxic changes” value [2, 7] was 1.

In the case of `C[CH2][Hg][S]c1ccccc1C(=O)[O-].[Na+]` [Thimerosal], the “LOAEL ESC EF1α” value (EF1α promoter) is reported as 0.5 µM, the “LOAEL Neurons EF1α” value (EF1α promoter) is reported as 0.5 µM and the “LOAEL ESC Tα1” value [1] is reported as 0.5 µM. The “Number of non-cytotoxic changes” value [2] was 0.

For `O=c1[nH]c(=O)c2[nH]c(=O)[nH]c2[nH]1` [Uric acid], the “LOAEL Neurons EF1α” value (EF1α promoter; mouse, 48 h) was over 50 µM, the “LOAEL ESC EF1α” value (EF1α promoter; [4]) was over 50 µM and the “LOAEL ESC Tα1” value [1, 5] was over 50 µM. For the same molecule, the “result” value [2, 6] was “negative” and the “Number of non-cytotoxic changes” value [2, 7] was 0.

In the case of `CCCC(CCC)C(=O)O` [Valproic acid], the “LOAEL Neurons EF1α” value (EF1α promoter; [3]) is reported as 5000 µM, the “LOAEL ESC EF1α” value (EF1α promoter; [4]) is reported as 5000 µM and the “LOAEL ESC Tα1” value [1, 5] is reported as 5000 µM. For the same molecule, the “Number of non-cytotoxic changes” value ([2]; mouse, 48 h) was 2.

“Erythropoietin: EpoR agonist controlling erythropoiesis and neurogenesis; Peptide/Protein” was tested, and the “effect … in neurons” value (EF1α promoter) was “selectively increased”, the “LOAEL Neurons EF1α” value (EF1α promoter; [3]) was over 0.238 µM and the “LOAEL ESC EF1α” value (EF1α promoter; [4]) was over 0.238 µM. The “LOAEL ESC Tα1” value [1, 5] was over 0.238 µM and the “Number of non-cytotoxic changes” value [2, 7] was 0.

In the case of Oxytocin, the “LOAEL Neurons EF1α” value (EF1α promoter; [3]) is reported as over 0.1 µM, the “LOAEL ESC EF1α” value (EF1α promoter; [4]) is reported as over 0.1 µM and the “LOAEL ESC Tα1” value [1, 5] is reported as over 0.1 µM. The “result” value [2, 6] was “did not have any effects” and the “Number of non-cytotoxic changes” value [2, 7] was 0.

B1: G-CSF: Hormone stimulating granulopoiesis; Peptide/Protein (protein, UniProt P09919 31-207, looked up)
Granulocyte …: TPLGPASSLPQSFLLKCLEQVRKIQGDGAALQEKLVSECATYKLCHPEELVLLGHSLGIPWAPLSSCPSQALQLAGCLSQLHSGLFLYQGLLQALEGISPELGPTLDTLQLDVADFATTIWQQMEELGMAPALQPTQGAMPAFASAFQRRAGGVLVASHLQSFLEVSYRVLRHLAQP
With B1 the “effect … in neurons” value (EF1α promoter) was “selectively increased”, the “LOAEL Neurons EF1α” value (EF1α promoter; [3]) was over 0.00266 µM and the “LOAEL ESC EF1α” value (EF1α promoter; [4]) was over 0.00266 µM. The “LOAEL ESC Tα1” value [1, 5] was over 0.00266 µM and the “Number of non-cytotoxic changes” value [2, 7] was 0.
